Like-named read-outs stand apart in the source and are kept apart here.
Experiments:
Type in all cases: biochemical
[1] = biological target: P99 beta-lactamase (class C) (Enterobacter cloacae, UniProt P05364); conditions: nitrocefin reporter
[2] = biological target: T1, beta-lactamase class D OXA-48 (Klebsiella pneumoniae, UniProt Q6XEC0); conditions: for Accuracy <> (average) / [Meropenem] <> (average): average of 5 replicates
Text: The specificity (or selectivity) of the method according to an embodiment of the invention is defined as the ability of the method to measure the concentration of a carbapenem antibiotic (such as meropenem) in presence of an excess of another beta-lactam antibiotic (second beta-lactam) currently used in ICUs (see Table 4).
To determine the specificity of the method illustrating the invention for carbapenem antibiotics, in particular meropenem, versus other beta-lactam antibiotics, stock-solutions of second beta-lactam antibiotics were prepared in water.
An excess of a second beta-lactam concentration of up to 10 times the concentration of meropenem was used.

[3] = biological target: T1, beta-lactamase class D OXA-48; conditions: calibration curves FIG. 2, FIG. 3
[4] = test system: Per2 beta-lactamase (class A); assay: Screening of beta-lactamases by competition, nitrocefin as reporter substrate
[5] = test system: AmpCHD beta-lactamase (class C); assay: as above
[6] = biological target: Imp1 beta-lactamase (class B) (Serratia marcescens, UniProt P52699); conditions: nitrocefin reporter
[7] = Meropenem 1.2 mg/L, second β-lactam 10.0 mg/L (8.4 times excess)
[8] = Meropenem 20.0 mg/L, second β-lactam 200.0 mg/L (10 times excess)

T1 sequence (Q6XEC0 23-265 limits assumed): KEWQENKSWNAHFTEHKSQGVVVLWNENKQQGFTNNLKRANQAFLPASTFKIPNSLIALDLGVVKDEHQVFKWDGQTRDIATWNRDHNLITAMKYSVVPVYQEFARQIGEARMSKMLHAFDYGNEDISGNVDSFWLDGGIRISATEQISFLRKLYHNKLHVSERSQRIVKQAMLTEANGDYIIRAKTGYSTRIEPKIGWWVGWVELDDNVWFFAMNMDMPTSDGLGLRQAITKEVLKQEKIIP
Chain of P99 beta-lactamase (class C) (P05364 21-381): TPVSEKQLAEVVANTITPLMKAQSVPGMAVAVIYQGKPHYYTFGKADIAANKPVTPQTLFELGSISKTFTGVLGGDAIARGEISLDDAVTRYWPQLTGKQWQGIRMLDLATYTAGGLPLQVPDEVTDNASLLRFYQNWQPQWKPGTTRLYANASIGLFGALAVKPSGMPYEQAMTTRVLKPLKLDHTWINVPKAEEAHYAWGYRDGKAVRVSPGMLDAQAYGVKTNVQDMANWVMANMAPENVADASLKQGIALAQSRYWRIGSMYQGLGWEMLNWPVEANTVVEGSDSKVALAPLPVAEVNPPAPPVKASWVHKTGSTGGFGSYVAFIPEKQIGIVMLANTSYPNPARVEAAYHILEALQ
Chain of Imp1 beta-lactamase (class B) (P52699 19-246 limits assumed): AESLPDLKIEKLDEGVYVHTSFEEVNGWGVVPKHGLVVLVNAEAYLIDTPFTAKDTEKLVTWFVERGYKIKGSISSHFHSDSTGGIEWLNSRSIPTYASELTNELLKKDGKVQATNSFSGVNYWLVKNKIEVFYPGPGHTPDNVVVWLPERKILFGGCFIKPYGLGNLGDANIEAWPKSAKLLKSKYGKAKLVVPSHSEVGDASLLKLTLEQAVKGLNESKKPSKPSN

Row | Compound | hydrolysis rate symbol, (Vmax/V0)-1 [1] | Accuracy <> (average) [2, 7] [%] | [Meropenem] <> (average) [2, 7] [mg/L] | Accuracy Replicate 1 [2, 7] [%] | [Meropenem] Replicate 1 [2, 7] [mg/L] | Accuracy Replicate 2 [2, 7] [%] | [Meropenem] Replicate 2 [2, 7] [mg/L] | Accuracy Replicate 3 [2, 7] [%] | [Meropenem] Replicate 3 [2, 7] [mg/L] | Accuracy Replicate 4 [2, 7] [%] | [Meropenem] Replicate 4 [2, 7] [mg/L] | Accuracy Replicate 5 [2, 7] [%] | [Meropenem] Replicate 5 [2, 7] [mg/L] | Accuracy <> (average) [2, 8] [%] | [Meropenem] <> (average) [2, 8] [mg/L] | Accuracy Replicate 1 [2, 8] [%] | [Meropenem] Replicate 1 [2, 8] [mg/L] | Accuracy Replicate 2 [2, 8] [%] | [Meropenem] Replicate 2 [2, 8] [mg/L] | Accuracy Replicate 3 [2, 8] [%] | other results
1 | CC(C)(O/N=C(\C(=O)N[C@@H]1C(=O)N2C(C(=O)[O-])=C(C[n+]3ccccc3)CS[C@H]12)c1csc(N)n1)C(=O)O [Ceftazidime] | + (0.1-1) | 111 | 1.3 | 108 | 1.3 | 105 | 1.2 | 108 | 1.3 | 112 | 1.3 | 118 | 1.4 | 100 | 20.1 | 102 | 20.6 | 97 | 19.6 | 100 | [Meropenem] Replicate 3 [2, 8]: 20.1 mg/L; Accuracy Replicate 4 [2, 8]: 100%; [Meropenem] Replicate 4 [2, 8]: 20.2 mg/L; Accuracy Replicate 5 [2, 8]: 99%; [Meropenem] Replicate 5 [2, 8]: 20.0 mg/L
2 | CO/N=C(\C(=O)N[C@@H]1C(=O)N2C(C(=O)O)=C(CSc3nc(=O)c(O)nn3C)CS[C@H]12)c1csc(N)n1 [Ceftria ®] | +++ (10-100) | 112 | 1.3 | 105 | 1.2 | 111 | 1.3 | 112 | 1.3 | 116 | 1.3 | 113 | 1.3 | 95 | 21.1 | 100 | 22.3 | 96 | 21.4 | 96 | [Meropenem] Replicate 3 [2, 8]: 21.4 mg/L; Accuracy Replicate 4 [2, 8]: 90%; [Meropenem] Replicate 4 [2, 8]: 20.0 mg/L; Accuracy Replicate 5 [2, 8]: 91%; [Meropenem] Replicate 5 [2, 8]: 20.4 mg/L
3 | C[C@@H](O)[C@H]1C(=O)N2C(C(=O)O)=C(S[C@@H]3CN[C@H](C(=O)Nc4cccc(C(=O)O)c4)C3)[C@H](C)[C@H]12 [ertapenem] | – | – | – | – | – | – | – | – | – | – | – | – | – | – | – | – | – | – | – | – | determining the concentration using OXA-48 [3]: possible
4 | CC1(C)S[C@@H]2[C@H](NC(=O)[C@H](N)c3ccccc3)C(=O)N2[C@H]1C(=O)O [Pentrexyl ®] | ++ (1-10) | 112 | 1.3 | 122 | 1.4 | 112 | 1.3 | 110 | 1.3 | 109 | 1.3 | 108 | 1.3 | 95 | 21.1 | 92 | 20.5 | 93 | 20.8 | 96 | hydrolysis rate symbol, (Vmax/V0)-1 [4]: + (0.1-1); hydrolysis rate symbol, (Vmax/V0)-1 [5]: +++ (10-100); [Meropenem] Replicate 3 [2, 8]: 21.4 mg/L; Accuracy Replicate 4 [2, 8]: 95%; [Meropenem] Replicate 4 [2, 8]: 21.3 mg/L; Accuracy Replicate 5 [2, 8]: 98%; [Meropenem] Replicate 5 [2, 8]: 21.8 mg/L
5 | Cc1onc(-c2ccccc2)c1C(=O)N[C@@H]1C(=O)N2[C@@H]1SC(C)(C)[C@@H]2C(=O)O [Penstapho ®] | ++++ (>100) | 119 | 1.4 | 115 | 1.3 | 123 | 1.4 | 121 | 1.4 | 122 | 1.4 | 116 | 1.3 | 103 | 22.9 | 98 | 21.8 | 104 | 23.2 | 104 | hydrolysis rate symbol, (Vmax/V0)-1 [4]: ++ (1-10); hydrolysis rate symbol, (Vmax/V0)-1 [5]: ++ (1-10); [Meropenem] Replicate 3 [2, 8]: 23.1 mg/L; Accuracy Replicate 4 [2, 8]: 107%; [Meropenem] Replicate 4 [2, 8]: 23.8 mg/L; Accuracy Replicate 5 [2, 8]: 102%; [Meropenem] Replicate 5 [2, 8]: 22.7 mg/L
6 | C[C@@H](O)[C@H]1C(=O)N2C(C(=O)O)=C(S[C@@H]3CN[C@H](CNS(N)(=O)=O)C3)[C@H](C)[C@H]12 [doripenem] | – | – | – | – | – | – | – | – | – | – | – | – | – | – | – | – | – | – | – | – | determining the concentration using OXA-48 [3]: possible
7 | CO/N=C(\C(=O)N[C@@H]1C(=O)N2C(C(=O)O)=C(COC(N)=O)CS[C@H]12)c1ccco1 [Zinacef ®] | ++++ (>100) | 104 | 1.2 | 108 | 1.3 | 97 | 1.1 | 100 | 1.2 | 104 | 1.2 | 111 | 1.3 | 98 | 21.9 | 98 | 21.8 | 98 | 21.9 | 95 | hydrolysis rate symbol, (Vmax/V0)-1 [6]: + (0.1-1); hydrolysis rate symbol, (Vmax/V0)-1 [5]: + (0.1-1); [Meropenem] Replicate 3 [2, 8]: 21.2 mg/L; Accuracy Replicate 4 [2, 8]: 101%; [Meropenem] Replicate 4 [2, 8]: 22.4 mg/L; Accuracy Replicate 5 [2, 8]: 99%; [Meropenem] Replicate 5 [2, 8]: 22.0 mg/L
